Our source for the TGI and GI50 values is PubChem BioAssay (NCI).

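Briefly, cells in 96-well plates were exposed to five compound concentrations for 48 h, and endpoints were estimated by linear interpolation. The concentration for 50% growth inhibition is given as GI50. TGI: concentration producing complete growth inhibition.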

Among the test systems are MDA-MB-231 breast; 786-0 renal; PC-3 prostate; DU-145 prostate; SK-MEL-5 melanoma; HOP-92 NSCLC; KM12 colon; COLO 205 colon; MOLT-4 leukemia.
Common to all, as to assay: growth of human tumour cells (NCI), 48 h

Consider `C/C=C/C=C/C1=NN(c2cccc(S(=O)(=O)O)c2)C2(C1)SCC(=O)N2c1nc2ccccc2s1` (stereo unspecified), for which the TGI in the test with MDA-MB-231 breast was above 100 µM; in the test on 786-0 renal it was 42.3 µM; in the test on PC-3 prostate, above 100 µM; in the test on DU-145 prostate, above 100 µM; in the test with SK-MEL-5 melanoma, above 100 µM; with HOP-92 NSCLC, above 100 µM. Further, the TGI in the test on KM12 colon, with COLO 205 colon and in the test with MOLT-4 leukemia was above 100 µM each time.

For `COc1ccc(OC)c(CNc2ccc(O)c(C(=O)NCCc3ccc(F)cc3)c2)c1`, the TGI was 21.7 µM in the test with MDA-MB-231 breast; 68.4 µM in the test with 786-0 renal; 32.1 µM in the test with PC-3 prostate; 34.5 µM with DU-145 prostate; 19.9 µM in the test on SK-MEL-5 melanoma; 25.9 µM in the test with KM12 colon. Further, the values for the TGI in the test with COLO 205 colon and in the test on MOLT-4 leukemia were 40.2 µM and 21.5 µM, respectively.

Take `Cc1cc(NC2=NCCO2)c2c(c1C)CCCC2`: the TGI with MDA-MB-231 breast is 77.9 µM; with 786-0 renal, 43 µM; in the test on DU-145 prostate, above 100 µM; in the test with SK-MEL-5 melanoma, 31.5 µM; in the test on HOP-92 NSCLC, 13.6 µM; in the test on KM12 colon, 33.5 µM. In addition, the TGI with COLO 205 colon was determined as 46.6 µM; in the test with MOLT-4 leukemia, 95.3 µM.

Consider `ClCc1c(-c2ccccc2)nn(-c2ccccc2)c1CCl`, for which the TGI came out at 22 µM with 786-0 renal; 21.4 µM with PC-3 prostate; 29 µM in the test on DU-145 prostate; 25.2 µM in the test with SK-MEL-5 melanoma; 7.69 µM with HOP-92 NSCLC; 32.7 µM with KM12 colon. Further, the TGI in the test on COLO 205 colon worked out at 25.5 µM.

For the compound `CN(C)CCCNC(=O)c1cc(NC(=O)c2cc(NC(=O)c3cc(NC(=O)CCCn4ccc(CO)c4CO)cn3C)cn2C)cn1C`, the TGI in the test with MDA-MB-231 breast is above 100 µM; with 786-0 renal, above 100 µM; with PC-3 prostate, above 100 µM; in the test with DU-145 prostate, above 100 µM; with SK-MEL-5 melanoma, 12.7 µM; in the test with HOP-92 NSCLC it was above 100 µM. The values for the TGI in the test with KM12 colon, with COLO 205 colon and in the test on MOLT-4 leukemia were above 100 µM, 53.1 µM and above 100 µM, respectively.

In the case of `C[C@H](CC[C@@H](O)C(C)(C)O)[C@H]1CC[C@@]2(C)[C@@H]3CC=C4[C@@H](CC[C@H](OC5OC(CO)C(O)C(O)C5O)C4(C)C)[C@]3(C)C(=O)C[C@]12C` (stereo partly specified), the TGI is above 100 µM with MDA-MB-231 breast; 70.5 µM with 786-0 renal; above 100 µM in the test on PC-3 prostate; above 100 µM in the test on DU-145 prostate; above 100 µM in the test on SK-MEL-5 melanoma; above 100 µM in the test on HOP-92 NSCLC. Also, the TGI in the test on KM12 colon, in the test with COLO 205 colon and with MOLT-4 leukemia was above 100 µM each time.

In the case of `Cc1ccc(S(=O)(=O)n2cc(-c3cnc(N)c(Br)n3)c3ccccc32)cc1`, the TGI with MDA-MB-231 breast is above 24 µM; in the test with 786-0 renal, above 23.3 µM; in the test with PC-3 prostate it was above 31.1 µM; in the test on DU-145 prostate, 6.68 µM; in the test with SK-MEL-5 melanoma, 41.4 µM; in the test on HOP-92 NSCLC, above 27.5 µM. For the same compound, the figures for the TGI in the test on KM12 colon, in the test with COLO 205 colon and with MOLT-4 leukemia were above 40.1 µM, 10 µM and 10.7 µM, respectively.

As for `CCCCNC(=S)/N=C/c1c(O)c2ccccc2oc1=O`, the TGI with MDA-MB-231 breast, with 786-0 renal, in the test on PC-3 prostate, in the test on DU-145 prostate, with SK-MEL-5 melanoma and with HOP-92 NSCLC was above 100 µM each time. Further, the TGI in the test with KM12 colon, in the test on COLO 205 colon and in the test with MOLT-4 leukemia was above 100 µM each time.

On to `O=C(c1ccc(Cl)cc1)N1N=C(c2ccc(Cl)cc2)CC1(O)c1cc(F)c(Cl)cc1Cl` (stereo unspecified), for which the TGI was above 100 µM with MDA-MB-231 breast; above 100 µM in the test on 786-0 renal; above 100 µM in the test on PC-3 prostate; above 100 µM in the test with DU-145 prostate; above 100 µM in the test with SK-MEL-5 melanoma; 51.3 µM with HOP-92 NSCLC. The TGI was 21.7 µM in the test on KM12 colon, 48.8 µM with COLO 205 colon and above 100 µM in the test with MOLT-4 leukemia.

As to `O=C(Nc1ccc2ccccc2c1)Nn1cnnc1`, the TGI in the test on MDA-MB-231 breast, in the test on 786-0 renal, with PC-3 prostate, in the test with DU-145 prostate, in the test with SK-MEL-5 melanoma and in the test with HOP-92 NSCLC was above 100 µM in each case. In addition, the TGI in the test on KM12 colon, in the test on COLO 205 colon and in the test on MOLT-4 leukemia was above 100 µM each time.

Turning to `C=CCN1CC2CN=NC2(C#N)C1` (stereo unspecified), the TGI with MDA-MB-231 breast, with 786-0 renal, in the test with PC-3 prostate, in the test on DU-145 prostate, in the test with SK-MEL-5 melanoma and in the test with KM12 colon was above 100 µM each time. Also, the TGI in the test with COLO 205 colon and in the test with MOLT-4 leukemia was above 100 µM each time.

Take `Oc1c(I)cc(I)cc1CNCCCN(Cc1ccccn1)Cc1ccccn1`: the GI50 is 1.01 µM with MDA-MB-231 breast; 1.17 µM in the test on PC-3 prostate; 1.51 µM with DU-145 prostate; 0.886 µM with SK-MEL-5 melanoma; 0.985 µM in the test with HOP-92 NSCLC; 0.986 µM in the test with KM12 colon. Also, the GI50 was 1.65 µM in the test with COLO 205 colon and 1.18 µM with MOLT-4 leukemia. For the same compound, the TGI amounted to 2.12 µM in the test on MDA-MB-231 breast; 3.02 µM with PC-3 prostate; 4.63 µM in the test with DU-145 prostate; 1.59 µM in the test on SK-MEL-5 melanoma; 2.48 µM in the test with HOP-92 NSCLC; 1.97 µM in the test on KM12 colon. In addition, the TGI with COLO 205 colon was found to be 5.99 µM; in the test on MOLT-4 leukemia it was 2.92 µM.

As to `CC1NOC(NS(=O)(=O)c2ccc(N=Nc3c(O)c(C(=O)O)cc4ccccc34)cc2)C1C` (stereo unspecified), the TGI in the test on MDA-MB-231 breast, in the test with 786-0 renal, with PC-3 prostate, with SK-MEL-5 melanoma, with HOP-92 NSCLC and in the test with KM12 colon was above 100 µM each time. For the same compound, the TGI with COLO 205 colon and in the test with MOLT-4 leukemia was above 100 µM throughout.

For `c1ccc(C(CCN2CCCC2)c2ccccn2)cc1` (stereo unspecified), the TGI in the test on MDA-MB-231 breast, with 786-0 renal, in the test on PC-3 prostate, in the test with DU-145 prostate, in the test with SK-MEL-5 melanoma and in the test on HOP-92 NSCLC was above 100 µM throughout. In addition, the TGI with KM12 colon and with COLO 205 colon was above 100 µM each time.
